This test has as its target T1, TBK1 (Homo sapiens, UniProt Q9UHD2).
T1 construct: All protein kinases were of human origin and encoded full length proteins, unless indicated otherwise; His6; made in house; host or cells: insect Sf21 cells
T1 sequence (Q9UHD2 1-729): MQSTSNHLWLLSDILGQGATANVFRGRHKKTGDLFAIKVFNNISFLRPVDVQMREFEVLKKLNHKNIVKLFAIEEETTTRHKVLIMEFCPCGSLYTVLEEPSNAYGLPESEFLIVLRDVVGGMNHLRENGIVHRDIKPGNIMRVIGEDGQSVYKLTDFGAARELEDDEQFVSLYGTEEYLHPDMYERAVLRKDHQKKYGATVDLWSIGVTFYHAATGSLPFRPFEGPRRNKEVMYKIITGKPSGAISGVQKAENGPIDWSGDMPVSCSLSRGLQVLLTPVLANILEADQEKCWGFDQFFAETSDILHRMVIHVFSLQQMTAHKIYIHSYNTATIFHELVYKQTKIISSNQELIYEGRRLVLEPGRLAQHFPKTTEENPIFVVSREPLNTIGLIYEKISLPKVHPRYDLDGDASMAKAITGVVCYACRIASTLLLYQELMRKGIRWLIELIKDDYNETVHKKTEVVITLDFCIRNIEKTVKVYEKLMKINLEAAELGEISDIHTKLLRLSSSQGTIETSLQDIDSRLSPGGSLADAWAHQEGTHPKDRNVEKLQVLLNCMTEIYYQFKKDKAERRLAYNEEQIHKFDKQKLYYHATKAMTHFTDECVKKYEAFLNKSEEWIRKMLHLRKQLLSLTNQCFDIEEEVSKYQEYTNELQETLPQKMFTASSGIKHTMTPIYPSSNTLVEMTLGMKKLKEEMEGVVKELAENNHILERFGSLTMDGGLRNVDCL
The test can be described thus: TBK1 protein kinase assay ([γ-33P]ATP filter-plate, IC50 from 10 concentrations). Type of test: biochemical. Particulars: 50 μM ATP, peptide substrate 300 μM, 30 min, 21° C.; read-out: Potency score (TBK1 IC50). From the text:
All protein kinases were of human origin and encoded full length proteins, unless indicated otherwise. They were either expressed as glutathione S-transferase (GST) fusion proteins in Escherichia Coli or as hexahistidine (His6)-tagged proteins in insect Sf21 cells. GST fusion proteins were purified by affinity chromatography on glutathione-Sepharose, and His6-tagged proteins on nickel/nitriloacetate-agarose. The procedures for expressing some of the protein kinases used herein have been detailed previously.^8,9 The following sections outline the DNA vectors synthesised and the procedures used to express and purifying protein kinases that have not been reported previously.
The following kinases were expressed in Sf21 cells: Aurora B and Aurora C, extra-cellular signal-regulated kinase 8 (ERK8), microtubule affinity regulating kinase 3 (MARK3), protein kinase Bα[118-480][S473D], protein kinase Bβ (PKBβ[120-481][S474D], 3-phosphoinositide-dependent protein kinase-1 [52-556] (PDK1[52-556], IKKε, TBK1,
All assays (25.5 μl) were carried out at room temperature (21° C.) and were linear with respect to time and enzyme concentration under the conditions used. Assays were performed for 30 min using Multidrop Micro reagent dispensers (Thermo Electron Corporation, Waltham, Mass. 02454, USA) in a 96-well format. The concentration of magnesium acetate in the assays was 10 mM and the [γ-33P] ATP (800 cpm/pmol) was used at 5, 20 or 50 μM as indicated, in order to be at or below the Km for ATP for each enzyme. Protein kinases assayed at 5 μM ATP were: ERK1, ERK8, PKBα, MARK3, Aurora C. Protein kinases assayed at 20 μM ATP were: JNK1, PDK1, CHK1, CHK2, CDK2 and Aurora B. Protein kinases assayed at 50 μM ATP were: MNK2, IKKepsilon and TBK1.
The assays were initiated with MgATP, stopped by addition of 5 μl of 0.5 M orthophosphoric acid and spotted on to P81 filterplates using a unifilter harvester (PerkinElmer, Boston, Mass. 02118, USA). The IC50 values of inhibitors were determined after carrying out assays at 10 different concentrations of each compound.
ERK1 and ERK8 were both assayed against myelin basic protein (MBP, 0.33 mg/ml). MARK3 was assayed against the peptide […] (300 μM), MNK2 against the eIF4E protein (0.5 mg/ml). PKBβ was assayed against the peptide GRPRTSSFAEGKK (30 μM). TBK1 were assayed against ([…]) (300 μM). The substrates used for other protein kinases were described previously.^8,9
Unless stated otherwise, enzymes were diluted in 50 mM Tris/HCl pH 7.5, 0.1 mM EGTA, 1 mg/ml BSA, 0.1% (v/v) 2-mercaptoethanol and assayed in 50 mM Tris/HCl pH 7.5, 0.1 mM EGTA, 0.1% (v/v) 2-mercaptoethanol.

As for `Cn1ncc2cc(Nc3ncc4ccn(CCCNC(=O)C5CCC5)c4n3)ccc21` [Example 1, Cyclobutanecarboxylic acid {3-[2-(1-methyl-1H-indazol-5-ylamino)-pyrrolo[2,3-d]pyrimidin-7-yl]propyl}-amide], the 50% inhibitory concentration (IC50) (usually the concentration that inhibits the measured activity by half) is less than 100 nM.

In the case of `Cn1ncc2ccc(Nc3ncc4ccn(CCCNC(=O)C5CCC5)c4n3)cc21` [Example 2, Cyclobutanecarboxylic acid {3-[2-(1-methyl-1H-indazol-6-ylamino)-pyrrolo[2,3-d]pyrimidin-7-yl]-propyl}-amide], the IC50 was less than 100 nM.

With `O=C(NCCCn1ccc2cnc(Nc3ccc(N4CCOCC4)cc3)nc21)C1CCC1` [Example 3, Cyclobutanecarboxylic acid {3-[2-(4-morpholin-4-yl-phenylamino)-pyrrolo[2,3-d]pyrimidin-7-yl]-propyl}-amide], the IC50 is less than 100 nM.

On to `CN1CCN(c2ccc(Nc3ncc4ccn(CCCNC(=O)C5CCC5)c4n3)cc2)CC1` [Example 4, Cyclobutanecarboxylic acid (3-{2-[4-(4-methyl-piperazin-1-yl)-phenylamino]-pyrrolo[2,3-d]pyrimidin-7-yl}-propyl)-amide], for which the IC50 was less than 100 nM.

Regarding `CN(C)Cc1ccc(Nc2ncc3ccn(CCCNC(=O)C4CCC4)c3n2)cc1` [Example 5, Cyclobutanecarboxylic acid {3-[2-(4-dimethylaminomethyl-phenylamino)-pyrrolo[2,3-d]pyrimidin-7-yl]-propyl}-amide], the half-maximal inhibitory concentration (IC50) is less than 100 nM.

For `O=C(NCCCn1ccc2cnc(Nc3cccc(CN4CCCC4)c3)nc21)C1CCC1` [Example 6, Cyclobutanecarboxylic acid {3-[2-(3-pyrrolidin-1-ylmethyl-phenylamino)-pyrrolo[2,3-d]pyrimidin-7-yl]-propyl}-amide], the IC50 is less than 100 nM.

As for `O=C(NCCCn1ccc2cnc(Nc3cccc(-c4cnco4)c3)nc21)C1CCC1` [Example 7, Cyclobutanecarboxylic acid {3-[2-(3-oxazol-5-yl-phenylamino)-pyrrolo[2,3-d]pyrimidin-7-yl]-propyl}-amide], the IC50 was less than 100 nM.

Regarding `Cn1cc(Nc2ncc3ccn(CCCNC(=O)C4CCC4)c3n2)cn1` [Example 8, Cyclobutanecarboxylic acid {3-[2-(1-methyl-1H-pyrazol-4-ylamino)-pyrrolo[2,3-d]pyrimidin-7-yl]-propyl}-amide], the IC50 is less than 100 nM.

As for `O=C(NCCCn1ccc2cnc(Nc3cnn(CCN4CCOCC4)c3)nc21)C1CCC1` [Example 9, Cyclobutanecarboxylic acid (3-{2-[1-(2-morpholin-4-yl-ethyl)-1H-pyrazol-4-ylamino]-pyrrolo[2,3-d]pyrimidin-7-yl}-propyl)-amide], the IC50 was in the range of 100 to 1000 nM.

On to `O=C(NCCCn1ccc2cnc(Nc3cccc(F)c3)nc21)c1cccs1` [Example 10, Thiophene-2-carboxylic acid {3-[2-(3-fluoro-phenylamino)-pyrrolo[2,3-d]pyrimidin-7-yl]-propyl}-amide], for which the 50% inhibitory concentration (IC50) was less than 100 nM.

With `N#Cc1cccc(Nc2ncc3ccn(CCCNC(=O)c4cccs4)c3n2)c1` [Example 11, Thiophene-2-carboxylic acid {3-[2-(3-cyano-phenylamino)-pyrrolo[2,3-d]pyrimidin-7-yl]-propyl}-amide], the IC50 was in the range of 100 to 1000 nM.

`O=C(NCCCn1ccc2cnc(Nc3cccnc3)nc21)c1cccs1` [Example 12, Thiophene-2-carboxylic acid {3-[2-(pyridin-3-ylamino)-pyrrolo[2,3-d]pyrimidin-7-yl]-propyl}-amide]: the IC50 lay in the range of 100 to 1000 nM.

Take `O=C(NCCCn1ccc2cnc(Nc3cccc(C(F)(F)F)c3)nc21)c1cccs1` [Example 13, Thiophene-2-carboxylic acid {3-[2-(3-trifluoromethyl-phenylamino)-pyrrolo[2,3-d]pyrimidin-7-yl]-propyl}-amide]: the IC50 fell in the range of 1000 to 10000 nM.

In the case of `O=C(NCCCn1ccc2cnc(Nc3cccc(NC(=O)N4CCCC4)c3)nc21)c1cccs1` [Example 14, Pyrrolidine-1-carboxylic acid [3-(7-{3-[(thiophene-2-carbonyl)-amino]-propyl}-7H-pyrrolo[2,3-d]pyrimidin-2-ylamino)-phenyl]-amide], the 50% inhibitory concentration (IC50) lay in the range of 100 to 1000 nM.

As for `O=C(NCCCn1ccc2cnc(Nc3ccc(C(=O)N4CCOCC4)cc3)nc21)C1CCC1` [Example 15, Cyclobutanecarboxylic acid (3-{2-[4-(morpholine-4-carbonyl)-phenylamino]-pyrrolo[2,3-d]pyrimidin-7-yl}-propyl)-amide], the IC50 is less than 100 nM.

For the molecule `O=C(NCCCn1ccc2cnc(Nc3ccc(N4CCOCC4)nc3)nc21)C1CCCC1` [Example 16, Cyclopentanecarboxylic acid {3-[2-(6-morpholin-4-yl-pyridin-3-ylamino)-pyrrolo[2,3-d]pyrimidin-7-yl]-propyl}-amide], the IC50 is less than 100 nM.

Consider `O=C(NCCCn1ccc2cnc(Nc3ccc(N4CCOCC4)nc3)nc21)c1cnccn1` [Example 17, Pyrazine-2-carboxylic acid {3-[2-(6-morpholin-4-yl-pyridin-3-ylamino)-pyrrolo[2,3-d]pyrimidin-7-yl]-propyl}-amide], for which the IC50 is 100 to 1000 nM.

In the case of `O=C(CC1CC1)NCCCn1ccc2cnc(Nc3ccc(N4CCOCC4)nc3)nc21` [Example 18, 2-Cyclopropyl-N-{3-[2-(6-morpholin-4-yl-pyridin-3-ylamino)-pyrrolo[2,3-d]pyrimidin-7-yl]-propyl}-acetamide], the half-inhibitory concentration (IC50) is 100 to 1000 nM.

On to `CC(C)CC(=O)NCCCn1ccc2cnc(Nc3ccc(N4CCOCC4)nc3)nc21` [Example 19, 3-Methyl-N-{3-[2-(6-morpholin-4-yl-pyridin-3-ylamino)-pyrrolo[2,3-d]pyrimidin-7-yl]-propyl}-butyramide], for which the IC50 fell in the range of 100 to 1000 nM.

`O=C(NCCCn1ccc2cnc(Nc3ccc(N4CCOCC4)nc3)nc21)C1CCOC1` (centres unmarked) [Example 20, Tetrahydro-furan-3-carboxylic acid {3-[2-(6-morpholin-4-yl-pyridin-3-ylamino)-pyrrolo[2,3-d]pyrimidin-7-yl]-propyl}-amide]: the IC50 was less than 100 nM.

As for `O=C(NCCCn1ccc2cnc(Nc3ccc(N4CCOCC4)nc3)nc21)c1cncs1` [Example 21, Thiazole-5-carboxylic acid {3-[2-(6-morpholin-4-yl-pyridin-3-ylamino)-pyrrolo[2,3-d]pyrimidin-7-yl]-propyl}-amide], the IC50 is 100 to 1000 nM.

As to `O=C(NCCCn1ccc2cnc(Nc3ccc(N4CCOCC4)nc3)nc21)C1CC1` [Example 22, Cyclopropanecarboxylic acid {3-[2-(6-morpholin-4-yl-pyridin-3-ylamino)-pyrrolo[2,3-d]pyrimidin-7-yl]-propyl}-amide], the IC50 is 100 to 1000 nM.

For `CC(C)C(=O)NCCCn1ccc2cnc(Nc3ccc(N4CCOCC4)nc3)nc21` [Example 23, N-{3-[2-(6-Morpholin-4-yl-pyridin-3-ylamino)-pyrrolo[2,3-d]pyrimidin-7-yl]-propyl}-isobutyramide], the IC50 lay in the range of 1000 to 10000 nM.

For the origin of these results see US20120088753A1, “PYRROLOPYRIMIDINES AND USED AS KINASE INHIBITORS” (MEDICAL RESEARCH COUNCIL TECHNOLOGY, priority 2009, published 2012).
